Experimental data from PubChem BioAssay AID1963826 (Molecular Pharmacology Branch, DTP, NCI, 2024).

System: 926638-142-R-J1-PDC complex spheroid viability
Test: Anticancer human tumor 926638-142-R-J1-PDC patient-derived endometrial carcinoma cell line growth inhibition [POLQ]
Details: for IC50: curve of first compound; for viability, T/C: stronger effect = lower value
Method in brief: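 Growth inhibition in 3D: complex spheroids (tumor PDC, HUVEC, MSC) treated with POLQ inhibitor combinations; where Cmax unknown, highest tested concentration 10 microM, except SN-38 at 1 microM.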

[1] = second compound 0.0316 µM, first compound 0.0316 µM
[2] = second compound 0.0316 µM, first compound 0.1 µM
[3] = second compound 0.0316 µM, first compound 0.316 µM
[4] = second compound 0.0316 µM, first compound 1 µM
[5] = second compound 0.0316 µM, first compound 3.16 µM
[6] = second compound 0.0316 µM, first compound 10 µM
[7] = second compound 0.1 µM, first compound 0.0316 µM
[8] = second compound 0.1 µM, first compound 0.1 µM
[9] = second compound 0.1 µM, first compound 0.316 µM
[10] = second compound 0.1 µM, first compound 1 µM
[11] = second compound 0.1 µM, first compound 3.16 µM
[12] = second compound 0.1 µM, first compound 10 µM
[13] = second compound 0.316 µM, first compound 0.0316 µM
[14] = second compound 0.316 µM, first compound 0.1 µM
[15] = second compound 0.316 µM, first compound 0.316 µM
[16] = second compound 0.316 µM, first compound 1 µM
[17] = second compound 0.316 µM, first compound 3.16 µM
[18] = second compound 0.316 µM, first compound 10 µM
[19] = second compound 1 µM, first compound 0.0316 µM
[20] = second compound 1 µM, first compound 0.1 µM
[21] = second compound 1 µM, first compound 0.316 µM
[22] = second compound 1 µM, first compound 1 µM
[23] = second compound 1 µM, first compound 3.16 µM
[24] = second compound 1 µM, first compound 10 µM
[25] = second compound 3.16 µM, first compound 0.0316 µM
[26] = second compound 3.16 µM, first compound 0.1 µM
[27] = second compound 3.16 µM, first compound 0.316 µM
[28] = second compound 3.16 µM, first compound 1 µM
[29] = second compound 3.16 µM, first compound 3.16 µM
[30] = second compound 3.16 µM, first compound 10 µM
[31] = second compound 10 µM, first compound 0.0316 µM
[32] = second compound 10 µM, first compound 0.1 µM
[33] = second compound 10 µM, first compound 0.316 µM
[34] = second compound 10 µM, first compound 1 µM
[35] = second compound 10 µM, first compound 3.16 µM
[36] = second compound 10 µM, first compound 10 µM
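Further: spheroids exposed to drugs for one week before readout.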
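Wherever viability, T/C is given: percent viability relative to DMSO vehicle control wells set as 100%.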

Q: With `COc1cccc2c1C(=O)c1c(O)c3c(c(O)c1C2=O)CC(O)(C(=O)CO)CC3OC1CC(N)C(O)C(C)O1` (stereo unspecified) + Nc1ccc(C#CCN(C(=O)Cc2ncc(C(F)(F)F)cc2C(F)(F)F)c2ccc(F)cc2)nn1 as the compound, how does the IC50 (second compound 0.0316 µM) read?
A: 0.167 µM

Q: And the IC50 (second compound 0.1 µM)?
A: 0.14 µM

Q: What about the IC50 (second compound 0.316 µM) of the same compound?
A: 0.137 µM

Q: What about the IC50 (second compound 1 µM) of the same compound?
A: 0.15 µM

Q: What about the IC50 (second compound 3.16 µM) of the same compound?
A: 0.118 µM

Q: What about the IC50 (second compound 10 µM) of the same compound?
A: 0.127 µM

Q: And the viability, T/C [1]?
A: 86.7%

Q: What about the viability, T/C [2] of the same compound?
A: 69.4%

Q: What about the viability, T/C [3] of the same compound?
A: 25.7%

Q: What about the viability, T/C [4] of the same compound?
A: 8.06%

Q: And the viability, T/C [5]?
A: 0.22%

Q: And the viability, T/C [6]?
A: 0.4%

Q: And the viability, T/C [7]?
A: 90.7%

Q: And the viability, T/C [8]?
A: 59.6%

Q: What about the viability, T/C [9] of the same compound?
A: 26.1%

Q: And the viability, T/C [10]?
A: 6.81%

Q: And the viability, T/C [11]?
A: 0.22%

Q: And the viability, T/C [12]?
A: 0.36%

Q: And the viability, T/C [13]?
A: 78.7%

Q: What about the viability, T/C [14] of the same compound?
A: 58.9%

Q: What about the viability, T/C [15] of the same compound?
A: 26.5%

Q: And the viability, T/C [16]?
A: 7.2%

Q: And the viability, T/C [17]?
A: 0.19%

Q: And the viability, T/C [18]?
A: 0.51%

Q: And the viability, T/C [19]?
A: 89%

Q: What about the viability, T/C [20] of the same compound?
A: 62.4%

Q: And the viability, T/C [21]?
A: 27.4%

Q: What about the viability, T/C [22] of the same compound?
A: 7.01%

Q: What about the viability, T/C [23] of the same compound?
A: 0.23%

Q: And the viability, T/C [24]?
A: 0.29%

Q: What about the viability, T/C [25] of the same compound?
A: 80.6%

Q: What about the viability, T/C [26] of the same compound?
A: 54.4%

Q: What about the viability, T/C [27] of the same compound?
A: 23.2%

Q: What about the viability, T/C [28] of the same compound?
A: 7.1%

Q: And the viability, T/C [29]?
A: 0.27%

Q: And the viability, T/C [30]?
A: 0.31%

Q: And the viability, T/C [31]?
A: 74%

Q: And the viability, T/C [32]?
A: 57.6%

Q: What about the viability, T/C [33] of the same compound?
A: 20.7%

Q: What about the viability, T/C [34] of the same compound?
A: 3.99%

Q: What about the viability, T/C [35] of the same compound?
A: 0.31%

Q: What about the viability, T/C [36] of the same compound?
A: 0.43%

Q: How did the IC50 (second compound 0.0316 µM) turn out when `CCCS(=O)(=O)Nc1ccc(F)c(C(=O)c2c[nH]c3ncc(-c4ccc(Cl)cc4)cc23)c1F` + Cc1cccc(N(C)C(=O)C2C(O)CCN2c2nc(C)cc(C(F)(F)F)c2C#N)c1 was run?
A: 9.51 µM

Q: And the IC50 (second compound 0.1 µM)?
A: > 10 µM

Q: What about the IC50 (second compound 0.316 µM) of the same compound?
A: > 10 µM

Q: What about the IC50 (second compound 1 µM) of the same compound?
A: > 10 µM

Q: And the IC50 (second compound 3.16 µM)?
A: 9.33 µM

Q: What about the IC50 (second compound 10 µM) of the same compound?
A: > 10 µM

Q: What about the viability, T/C [1] of the same compound?
A: 110%

Q: What about the viability, T/C [2] of the same compound?
A: 95.8%

Q: What about the viability, T/C [3] of the same compound?
A: 97.4%

Q: And the viability, T/C [4]?
A: 103%

Q: What about the viability, T/C [5] of the same compound?
A: 102%

Q: And the viability, T/C [6]?
A: 47.6%

Q: What about the viability, T/C [7] of the same compound?
A: 117%

Q: What about the viability, T/C [8] of the same compound?
A: 103%

Q: What about the viability, T/C [9] of the same compound?
A: 96.2%

Q: What about the viability, T/C [10] of the same compound?
A: 96.9%

Q: And the viability, T/C [11]?
A: 86.4%

Q: And the viability, T/C [12]?
A: 58.2%

Q: What about the viability, T/C [13] of the same compound?
A: 114%

Q: And the viability, T/C [14]?
A: 123%

Q: What about the viability, T/C [15] of the same compound?
A: 94.2%

Q: What about the viability, T/C [16] of the same compound?
A: 97%

Q: What about the viability, T/C [17] of the same compound?
A: 80.4%

Q: And the viability, T/C [18]?
A: 55.1%

Q: And the viability, T/C [19]?
A: 95.1%

Q: And the viability, T/C [20]?
A: 99.4%

Q: And the viability, T/C [21]?
A: 89%

Q: What about the viability, T/C [22] of the same compound?
A: 110%

Q: And the viability, T/C [23]?
A: 86%

Q: And the viability, T/C [24]?
A: 49.8%

Q: And the viability, T/C [25]?
A: 104%

Q: And the viability, T/C [26]?
A: 114%

Q: And the viability, T/C [27]?
A: 87.1%

Q: And the viability, T/C [28]?
A: 88.9%

Q: What about the viability, T/C [29] of the same compound?
A: 94.7%

Q: What about the viability, T/C [30] of the same compound?
A: 46.7%

Q: And the viability, T/C [31]?
A: 97.7%

Q: And the viability, T/C [32]?
A: 94.1%

Q: What about the viability, T/C [33] of the same compound?
A: 77.1%

Q: And the viability, T/C [34]?
A: 76.4%

Q: What about the viability, T/C [35] of the same compound?
A: 89.4%

Q: What about the viability, T/C [36] of the same compound?
A: 56%

Q: Which IC50 (second compound 0.0316 µM) does the source give for `C#Cc1c(F)ccc2cc(O)cc(-c3ncc4c(N5CC6CCC(C5)N6)nc(OCC56CCCN5CC(F)C6)nc4c3F)c12` (stereo unspecified) + Nc1ccc(C#CCN(C(=O)Cc2ncc(C(F)(F)F)cc2C(F)(F)F)c2ccc(F)cc2)nn1 here?
A: > 10 µM

Q: And the IC50 (second compound 0.1 µM)?
A: > 10 µM

Q: And the IC50 (second compound 0.316 µM)?
A: > 10 µM

Q: And the IC50 (second compound 1 µM)?
A: > 10 µM

Q: And the IC50 (second compound 3.16 µM)?
A: > 10 µM

Q: What about the IC50 (second compound 10 µM) of the same compound?
A: > 10 µM

Q: What about the viability, T/C [1] of the same compound?
A: 97.8%

Q: What about the viability, T/C [2] of the same compound?
A: 95%

Q: And the viability, T/C [3]?
A: 83.7%

Q: And the viability, T/C [4]?
A: 80.1%

Q: And the viability, T/C [5]?
A: 71.8%

Q: What about the viability, T/C [6] of the same compound?
A: 64.5%

Q: And the viability, T/C [7]?
A: 125%

Q: And the viability, T/C [8]?
A: 83.2%

Q: What about the viability, T/C [9] of the same compound?
A: 79.1%

Q: And the viability, T/C [10]?
A: 82.2%

Q: What about the viability, T/C [11] of the same compound?
A: 75.9%

Q: And the viability, T/C [12]?
A: 71.2%

Q: What about the viability, T/C [13] of the same compound?
A: 84.4%

Q: And the viability, T/C [14]?
A: 101%

Q: And the viability, T/C [15]?
A: 84.2%

Q: What about the viability, T/C [16] of the same compound?
A: 76.7%

Q: What about the viability, T/C [17] of the same compound?
A: 79.8%

Q: What about the viability, T/C [18] of the same compound?
A: 59.3%

Q: And the viability, T/C [19]?
A: 105%

Q: And the viability, T/C [20]?
A: 101%

Q: And the viability, T/C [21]?
A: 89.4%

Q: And the viability, T/C [22]?
A: 85.6%

Q: And the viability, T/C [23]?
A: 81.2%

Q: What about the viability, T/C [24] of the same compound?
A: 59.2%

Q: And the viability, T/C [25]?
A: 88%

Q: And the viability, T/C [26]?
A: 93.4%

Q: What about the viability, T/C [27] of the same compound?
A: 74.2%

Q: What about the viability, T/C [28] of the same compound?
A: 87%

Q: And the viability, T/C [29]?
A: 80.3%

Q: And the viability, T/C [30]?
A: 66.3%

Q: And the viability, T/C [31]?
A: 99.1%

Q: What about the viability, T/C [32] of the same compound?
A: 78.2%

Q: What about the viability, T/C [33] of the same compound?
A: 80%

Q: What about the viability, T/C [34] of the same compound?
A: 70.7%

Q: And the viability, T/C [35]?
A: 79.3%

Q: And the viability, T/C [36]?
A: 53.1%
